Experimental data from EP0096006A2, “3-(Ureidocyclohexylamino)-propane-1,2-diol derivatives, process for their preparation, pharmaceutical preparations containing these compounds and their therapeutical use” (CIBA-GEIGY AG, priority 1982, dated 1983).
pIC50: −log10 of the molar value.

Tests used:
[1] = test system: spontan hypertensiven Ratten; test: Systolic blood pressure and heart rate in conscious spontaneously hypertensive rats (tail sphygmomanometry), oral dosing; format: in vivo; details: for Abnahme des Bludrucks: second day, 2 hours after dosing; for antihypertensive Wirkung / bradycardische (d.h. die Herzfrequenz herabsetzende) Wirkung: low doses of 10 mg/kg or below
Source text: Die in vivo blutdrucksenkende Wirkung wird entweder direkt mit einem Katheter, der z.B. in die fumurale Arterie eines Hundes eingeführt ist, oder indirekt durch Sphygmomanometrie am Rattenschwanz, und einem Uebertragungsinstrument registriert. Der Bludruck wird vor und nach der Verabreichung des Wirkstoffes in mmHg bestimmt.
So kann die antihypertensive Wirkung und die Reduktion der Herzfrequenz bei spontan hypertensiven Ratten nachgewiesen werden, indem man indirekt durch Sphygmomanometrie am Rattenschwanz den systolischen Druck misst. Wache Ratten werden einzeln in Käfige gesperrt, welche sich in einem angenehm warmen Raum befinden. Nachdem Kontrollwerte für Blutdruck und Herzfrequenz gemessen words-n sind, werden die Testverbindungen oral einmal täglich an 2 oder 4 aufeinanderfolgenden Tagen verabreicht. Der Blutdruck wird gewöhnlich 24 Stunden nach der ersten Dosis und dann jeweils 2,0, 4,0 und 24 Stunden nach jeder täglichen Dosis bestimmt, und die Wirkung mit der bei solchen Ratten verglichen, die mit dem Trägermaterial behandelt worden sind.
Gemäss der vorher beschriebenen Methode werden wache Ratten einzeln in Käfige gestellt. Zuerst werden die Kontrollwerte des Blutdrucks ermittelt und dann die einzelnen Testverbindungen einmal täglich, an zwei aufeinanderfolgenden Tagen, oral verabreicht.

[2] = test system: normotensiven Kaninchen; test: Intraocular pressure reduction in normotensive rabbits, topical application (anti-glaucoma effect); format: in vivo
Description: Die Anticlaucoma-Wirkung der erfindungsgemässen Verbindungen ist an der intraokularen Druckverminderung abzulesen, die an Säugetieren, z.B. bei normotensiven Kaninchen, im wesentlichen nach der von D.E. Potter und J.M. Rowland in Experimental Eye Research 27, 615-625, (1978) beschriebenen Methodik nachgewiesen werden kann. Die intraokulare Druckverminderung wird wie folgt bestimmt: 2 x 50 µl einer Lösung der Testverbindung in sterilisiertem Wasser von unterschiedlicher Konzentration werden bei männlichen, neuseeländischen Albinokaninchen, die 3-4 kg wiegen, jeweils auf ein Auge appliziert, und 2 x 50 µl des Trägermaterials werden zur Kontrolle auf das kontralaterale Auge appliziert. Der intraokulare Druck (in mm Hg) in jedem Auge wird direkt vor der Behandlung tonometrisch gemessen, und dann 1,2 bzw. 3 Stunden nach der Verabreichung. Es wird der Unterschied des intraokularen Druckes zwischen behandeltem Auge und Kontrollauge bestimmt.
Beispielsweise zeigen die erfindungsgemässen Verbindungen der Beispiele 1 und 2a, bei einer Konzentration von etwa 20 bzw.

[3] = target: β-adrenergischen Rezeptoren; test: β-receptor binding test in vitro: inhibition of 3H-dihydroalprenolol binding to brain membrane preparation; design: species or system Kalb; details: calf brain caudate membranes; 10 min at 37°C; determined graphically; read-out: IC50 (Hemmung der spezifischen Bindung von 1,0 nM 3H-Dihydroalprenolol)
Source text: Die β-adrenergische Rezeptorbindungseigenschaften, welche β-adrenergische regulierende, z.B. blockierende Wirkung der genannten neuen Verbindungen anzeigen, werden in einem Test der β-Rezeptorbindung in vitro nach einer Modifikation des Verfahrens bestimmt, wie es in Life Sciences 17, 993 (1975) beschrieben ist.
^3H-Dihydroalprenolol wird spezifisch von Gehirnmembran-Präparaten gebunden und diese Wirkung wird durch bekannte Agonisten und Antagonisten von β-adrenergischen Rezeptoren gehemmt.
Beim Bindungstest werden 2 ml-Proben der Suspension eines Membranpräparates (welches etwa 20 mg Kalbshirn-Caudaten entspricht) in eisgekühlte Reagenzgläser gegeben, welche ^3H-Dihydroalprenolol mit oder ohne Testverbindung, frisch gelöst in 0,1% Ascorbinsäure, enthalten. Die Endkonzentration von ^3H-Dihydroalprenolol ist 1,0 nM. Die Testverbindungen werden innerhalb einer weiten Konzentrationsreihe geprüft. Die Reagenzgläser werden 10 Minuten bei 37°C inkubiert, und die Suspensionen dann sofort unter Vakuum durch Fiberglasfilter filtriert. Die Filter werden mit 15 ml kalter 50 mM Tris-HCi (pH 7,9 bei 25°C) gewaschen, zusammen mit 12 ml Szintillationslösung in Szintillationsampullen gegeben, zunächst 90 Minuten geschüttelt und dann mit dem Zählrohr auf Radioaktivität untersucht.
Die IC50 Werte (welche die Konzentration der Testverbindungen angeben, die nötig ist, um die spezifische Bindung der 1,0 nM ^3H-Dihydrcal- prenolol-Lösung um 50% zu verringern) werden graphisch bestimmt.
Die erfindungsgemässen Verbindungen hemmen die β-Rezeptorbildung des Dihydroalprenolols mit IC50 Werten von […] oder darunter. Beispielsweise weisen die Verbindungen der Beispiele 1, 2a, 3b und 3c IC50-Werte von etwa […] auf.

[4] = test system: renal hypertensiven Hunden; test: Arterial pressure and heart rate in conscious renal hypertensive dogs, oral dosing; format: in vivo, Hunde; details: oral dose 10 mg/kg
Source text: Die antihypertensive und bradycardische Wirkung wird ebenso an wachen, chronisch hypertensiven Hunden untersucht; die Hypertension wird dabei durch eine Schwächung der Nierenfunktion erzeugt. Der arterielle Druck wird durch direkte perkutane Punktion der femuralen Arterie, unter Verwendung einer Nadel, die an ein Uebertragungsinstrument angeschlossen ist, registriert. Nach der Aufnahme von Kontrolldaten werden die Hunde oral einmal täglich, 4 Tage lang, mit Kapseln, welche die Testverbindung enthalten, behandelt. Der Blutdruck und die Herzfrequenz werden jeweils 1,5, 3, 6 und 24 Stunden nach der täglichen Dosis bestimmt und die Ergebnisse mit den vor der Behandlung erhaltenen Kontrollwerten verglichen.

[5] = 50 mg/kg p.o. once daily for 2 days

SMILES	antihypertensive Wirkung [1]	bradycardische (d.h. die Herzfrequenz herabsetzende) Wirkung [1]	pIC50 [3]	Abnahme des Bludrucks [1, 5] [mm Hg]	other results
O=C1NCCN1[C@H]1CC[C@@H](NC[C@H](O)COc2ccccc2OCC2CC2)CC1 [Beispiel 2a, (S)-cis-1-(4-[3-(o-Cyclopropylmethoxyphenoxy)-2-hydroxypropylamino]-cyclohexyl)-2-imidazolidinon-hemifumarat]	deutliche	deutliche	~8.30	–	Abnahme des Bludrucks ([1]; 30 mg/kg p.o. once daily for 2 days): -75.5 mm Hg; Verminderung des intraokularen Druckes ([2]; concentration about 6,4 nM): deutliche Verminderung
COCCc1ccc(OCC(O)CN[C@H]2CC[C@@H](N3CCNC3=O)CC2)cc1 (stereo partly drawn) [Beispiel 3k]	–	–	–	-17.6	–
O=C1NCCN1[C@H]1CC[C@@H](NCC(O)COc2ccccc2-n2cccc2)CC1 (stereo partly drawn) [Beispiel 3h]	–	–	–	-68.0	–
N#Cc1ccccc1OCC(O)CN[C@H]1CC[C@@H](N2CCNC2=O)CC1 (stereo partly drawn) [Beispiel 3f]	–	–	–	-11.0	–
C#CCOc1ccccc1OCC(O)CN[C@H]1CC[C@H](N2CCNC2=O)CC1 (mixture of isomers) [Beispiel 3c]	–	–	~8.40	-30.0	–
O=C1NCCN1[C@H]1CC[C@@H](NCC(O)COc2ccccc2OCC2CC2)CC1 (mixture of isomers) [Beispiel 3m]	deutliche	deutliche	–	–	Herzfrequenz [4]: herabsetzen; mittlerer arterieller Druck [4]: ununterbrochene Verringerung
N#Cc1ccccc1OCC(O)CN[C@H]1CC[C@H](N2CCNC2=O)CC1 (stereo partly drawn) [Beispiel 3g]	–	–	–	-33.0	–
C#CCOc1cccc(OCC(O)CN[C@H]2CC[C@@H](N3CCNC3=O)CC2)c1 (stereo partly drawn) [Beispiel 3d]	–	–	–	-52.3	–
C=CCOc1ccccc1OCC(O)CN[C@H]1CC[C@@H](N2CCNC2=O)CC1 (mixture of isomers) [Beispiel 1, cis-1-(4-[3-(o-Allyloxyphenoxy)-2-hydroxypropylamino]-cyclohexyl)-2-imidazolidinon-hemifumarat]	deutliche	deutliche	~7.10	-79.3	Herzfrequenz [4]: herabsetzen; mittlerer arterieller Druck [4]: ununterbrochene Verringerung; Verminderung des intraokularen Druckes ([2]; concentration about 20 nM): deutliche Verminderung
COc1ccccc1OCC(O)CN[C@H]1CC[C@@H](N2CCNC2=O)CC1 (stereo partly drawn) [Beispiel 3a]	–	–	–	-39.3	–
